Bounds are passed on as bounds.

Chain of PD-1/PD-L1 (Q9NZQ7 19-238 limits assumed): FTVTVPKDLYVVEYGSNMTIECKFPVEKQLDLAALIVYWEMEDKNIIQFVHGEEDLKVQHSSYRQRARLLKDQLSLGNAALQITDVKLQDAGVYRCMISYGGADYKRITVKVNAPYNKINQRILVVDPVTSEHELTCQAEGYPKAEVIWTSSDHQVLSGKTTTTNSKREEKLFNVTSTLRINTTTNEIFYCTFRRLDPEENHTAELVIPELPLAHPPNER

The experiment addresses PD-1/PD-L1 (Homo sapiens, UniProt Q9NZQ7). In words: TR-FRET PD-1/PD-L1 binding inhibition at the molecular level (free proteins). To be noted: Tag1-PD-L1 and Tag2-PD-1 proteins, twelve concentrations from 200 nM, 2 hours at room temperature, read-out: FRET assay (IC50). As to the method: In order to evaluate the inhibitory activity of the compounds synthesized according to the above Preparation Examples against PD-1/PD-L1 molecules in a free protein state,a TR-FRET (Time-Resolved Fluorescence Energy Transfer) experimetn was performed as described below.
Specifically, the compounds were prepared in a 96-well plate by serial dilution starting from 200 nM with 1/2 dilutions to obtain a total of twelve concentrations, and 2 µL of each compound solution was added to a 384-well plate. Thereafter, Tag1-PD-L1 protein and Tag2-PD-1 protein were each prepared at a 1x concentration, mixed at a ratio of 1:1, and 8 µL of the mixed solution was added to each well of the 384-well plate containing the compounds. Anti-Tag1 Eu Cryptate reagent and Anti-Tag2 XL665 antibody were each prepared at a 1* concentration, mixed at a ratio of 1:1, and 10 µL of the mixed solution was added to each well of the 384-well plate containing the compounds and proteins, followed by incubation at room temperature for 2 hours. Upon completion of the reaction, fluorescence signals at wavelengths of 620 nm and 665 nm were measured using a microplate reader.
For orientation: In TR-FRET formats the signal depends on donor and acceptor labels being close together.
For orientation: IC50 means the concentration at which inhibition is half-maximal. As for `O[C@@H]1CCN(Cc2cnc3c(Nc4cccc(-c5cccc(-c6cc7n(n6)CCCC7N6CC[C@@H](O)C6)c5Cl)c4Cl)nccc3c2)C1` (stereo partly drawn) [Compound 183, (3R)-1-(2-(2,2'-dichloro-3'-((3-(((R)-3-hydroxypyrrolidin-1-yl)methyl)-1,7-naphthyridin-8-yl)amino)-[1,1'-biphenyl]-3-yl)-4,5,6,7-tetrahydropyrazolo[1,5-a]pyridin-4-yl)pyrrolidin-3-ol], the IC50 is below 10 nM.

As for `COc1cc(/C(F)=C/c2cccc(-c3cccc(NC(=O)c4cc5n(n4)CCC[C@@H]5N4CC[C@@H](O)C4)c3Cl)c2Cl)ncc1CN1CC[C@@H](O)C1` [Compound 335, (S)-N-(2,2'-dichloro-3'-((Z)-2-fluoro-2-(5-(((R)-3-hydroxypyrrolidin-1-yl)methyl)-4-methoxypyridin-2-yl)vinyl)-[1,1'-biphenyl]-3-yl)-4-((R)-3-hydroxypyrrolidin-1-yl)-4,5,6,7-tetrahydropyrazolo[1,5-a]pyridine-2-carboxamide], the IC50 lay in the range of 10 to 100 nM.

Take `CC(=O)NCCNC1CCCn2nc(C(=O)Nc3cccc(-c4cccc(NC(=O)c5ccc(CN6CC[C@@H](O)C6)cn5)c4C)c3C)cc21` (stereo partly drawn) [Compound 94, 4-((2-acetamidoethyl)amino)-N-(3'-(5-(((R)-3-hydroxypyrrolidin-1-yl)methyl)picolinamido)-2,2'-dimethyl-[1,1'-biphenyl]-3-yl)-4,5,6,7-tetrahydropyrazolo[1,5-a]pyridine-2-carboxamide]: the IC50 is below 10 nM. As for `Cc1c(NC(=O)c2cc3n(n2)CCCC3N2CC[C@@H](O)C2)cccc1-c1cccc(Nc2nccc3cc(CN4CC[C@@H](O)C4)cnc23)c1Cl` (stereo partly drawn) [Compound 38, N-(2'-chloro-3'-((3-(((R)-3-hydroxypyrrolidin-1-yl)methyl)-1,7-naphthyridin-8-yl)amino)-2-methyl-[1,1'-biphenyl]-3-yl)-4-((R)-3-hydroxypyrrolidin-1-yl)-4,5,6,7-tetrahydropyrazolo[1,5-a]pyridine-2-carboxamide], the IC50 was in the range of 10 to 100 nM. `O=C(Nc1cccc(-c2cccc(Nc3nc(C(F)(F)F)nc4cccnc34)c2Cl)c1Cl)c1cc2n(n1)CCC[C@@H]2N1CC[C@@H](O)C1` [Compound 333, (S)-N-(2,2'-dichloro-3'-((2-(trifluoromethyl)pyrido[3,2-d]pyrimidin-4-yl)amino)-[1,1'-biphenyl]-3-yl)-4-((R)-3-hydroxypyrrolidin-1-yl)-4,5,6,7-tetrahydropyrazolo[1,5-a]pyridine-2-carboxamide]: the IC50 was in the range of 10 to 100 nM. Turning to `O=C(Nc1cccc(-c2cccc(Nc3nc(C(F)F)nc4cc(CN5CC[C@@H](O)C5)cnc34)c2Cl)c1Cl)c1cc2n(n1)CCCC2N1CC[C@@H](C(=O)O)C1` (stereo partly drawn) [Compound 142, (3R)-1-(2-((2,2'-dichloro-3'-((2-(difluoromethyl)-7-(((R)-3-hydroxypyrrolidin-1-yl)methyl)pyrido[3,2-d]pyrimidin-4-yl)amino)-[1,1'-biphenyl]-3-yl)carbamoyl)-4,5,6,7-tetrahydropyrazolo[1,5-a]pyridin-4-yl)pyrrolidine-3-carboxylic acid], the IC50 was below 10 nM. Regarding `Cc1c(NC(=O)c2cc3n(n2)CCCC3N2CC[C@@H](C(=O)O)C2)cccc1-c1cccc(Nc2nc(C(F)F)nc3cc(CN4CC[C@@H](O)C4)cnc23)c1C` (stereo partly drawn) [Compound 133, (3R)-1-(2-((3'-((2-(difluoromethyl)-7-(((R)-3-hydroxypyrrolidin-1-yl)methyl)pyrido[3,2-d]pyrimidin-4-yl)amino)-2,2'-dimethyl-[1,1'-biphenyl]-3-yl)carbamoyl)-4,5,6,7-tetrahydropyrazolo[1,5-a]pyridin-4-yl)pyrrolidine-3-carboxylic acid], the IC50 is below 10 nM. As to `O=C(Nc1cccc(-c2cccc(Nc3nccc4cc(CN5CC[C@@H](O)C5)cnc34)c2Cl)c1Cl)c1cc2n(n1)CCCC2NC1CCOCC1` (stereo partly drawn) [Compound 231, N-(2,2'-dichloro-3'-((3-(((R)-3-hydroxypyrrolidin-1-yl)methyl)-1,7-naphthyridin-8-yl)amino)-[1,1'-biphenyl]-3-yl)-4-((tetrahydro-2H-pyran-4-yl)amino)-4,5,6,7-tetrahydropyrazolo[1,5-a]pyridine-2-carboxamide], the IC50 fell in the range of 10 to 100 nM.

These data come from patent EP4755888A1 (ILAb Co., Ltd., priority 2023, dated 2025).
